What was measured:
Assay type in all cases: in vivo
[1] = tested on: Musca domestica; test: Pesticidal test against Musca domestica (petri dish dry film); conditions: 24 h, concentration 100 ppm, female adults, examined after 1 day, 25° C., read-out: pesticidal rate
Summary of the method: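 Female adult houseflies were confined at 25° C in capped 9 cm petri dishes coated with an air-dried film from 1 ml acetone solution of compound (predetermined concentration). Mortality was scored 1 day later, two replicates of five per group.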

[2] = tested on: Choristoneura magnanima; test: Pesticidal test against Choristoneura magnanima (artificial feed dip); conditions: 144 h, concentration 1 ppm, 2-stage larvae, examined after 6 days, 25° C., read-out: pesticidal rate
Summary of the method: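 Second-stage larvae, five per group in duplicate, fed artificial diet that had been immersed 30 s in test solution at a predetermined concentration and air-dried. Mortality scored at day 6, 25° C.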

[3] = tested on: Plutella xylostella; test: Pesticidal test against Plutella xylostella (cabbage leaf dip); conditions: foliar, 144 h, concentration 1 ppm, 2-stage larvae, examined after 6 days, 25° C., read-out: pesticidal rate
Summary of the method: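 Second-stage larvae (5 per group, two replicates) were released onto air-dried cabbage leaf discs that had been immersed for 30 seconds in compound solution at a set concentration. Mortality was scored after 6 days at 25° C.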

[4] = tested on: Ctenocephalides Felis; test: Insecticidal test for Ctenocephalides felis, Test Example 1 (dry film in glass tube, 0.5 ml, Table A4); conditions: adults
Description: Insecticidal Test for Ctenocephalides Felis
0.5 ml of a solution of acetone, the active ingredient, prepared to the prescribed concentration was added dropwise to a glass tube with a flat bottom (internal diameter: 2.6 cm, bottom area: 5.3 cm^2, height: 12 cm), and the solvent was evaporated at room temperature to form a dry film of the agent on the bottom surface. About 10 adults of Ctenocephalides Felis per glass tube were added, and the adults were contact-exposed to the test compound. After 24 hours of the exposure, the conditions of the adults were examined and classified into “alive” and “dead (including a moribund condition)” to determine the death rate (in triplicate).
As the comparative compounds, the following Compounds (A), (B), and (C) disclosed in WO2009/080203, and fipronil were used.

[5] = tested on: Coptotermes formosanus; test: Pesticidal test against Coptotermes formosanus (treated filter paper); conditions: 120 h, concentration 30 ppm, examined after 5 days of treatment, 28° C., read-out: pesticidal rate
Description: Pesticidal Test against Coptotermes formosanus
20 μl of an acetone solution in which a test compound had been prepared at a predetermined concentration was added dropwise to the filter paper having a diameter of […] included in a polypropylene cup, and air-dried, and then 20 μl of water was added thereto. Coptotermes formosanus was released and the cup was capped. They were left to stand in a thermostatic chamber at 28° C., and the numbers of the living pests and the dead pests were examined after 5 days of treatment. The test was carried out with ten larvae per group in two replicates.

[6] = tested on: Spodoptera litura; test: Pesticidal test against Spodoptera litura (cabbage leaf dip); conditions: foliar, 144 h, concentration 1 ppm, 2-stage larvae, examined after 6 days, 25° C., read-out: pesticidal rate
Summary of the method: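 Cabbage leaf pieces dipped 30 seconds in compound solution at a predetermined concentration and air-dried, then offered to second-stage larvae, five per group in two replicates. Held at 25° C. Living and dead larvae counted after 6 days.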

[7] = tested on: Ctenocephalides Felis; test: Insecticidal test for Ctenocephalides felis, Test Example 1 (dry film in glass tube, 0.5 ml, Table A4); conditions: adults; remark: listed apart in the source
[8] = tested on: Blattella germanica; test: Pesticidal test against Blattella germanica (petri dish dry film); conditions: 24 h, concentration 100 ppm, female adults, examined after 1 day, 25° C., read-out: pesticidal rate
Summary of the method: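 Acetone solution of test compound at a predetermined concentration dried as a film in a 9 cm petri dish; female adult cockroaches released onto it and kept at 25° C. Living and dead counted after 1 day; five insects per group, two replicates.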

[9] = tested on: Laodelphax striatellus; test: Pesticidal test against Laodelphax striatellus (rice seedling spray); conditions: 144 h, concentration 100 ppm, 3-stage larvae, examined after 6 days, 25° C., read-out: pesticidal rate
Summary of the method: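 Rice seedlings sprayed with 2.5 ml acetone solution of compound at a predetermined concentration, air-dried, then infested with third-stage Laodelphax striatellus larvae in capped water-containing tubes at 25 °C. Living and dead insects counted after 6 days; ten larvae per group, two replicates.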

[10] = tested on: Adoxophyes honmai; test: Pesticidal test against Adoxophyes honmai (artificial feed dip); conditions: 144 h, concentration 10 ppm, 2-stage larvae, examined after 6 days, 25° C., read-out: pesticidal rate
Summary of the method: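 Second-instar larvae, five per group in duplicate, were released onto air-dried feed slices previously immersed for 30 s in compound solution at a set concentration. Mortality was scored on day 6 at 25° C.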

[11] = tested on: Helicoverpa armigera; test: Pesticidal test against Helicoverpa armigera (cabbage leaf disk dip); conditions: foliar, 72 h, concentration 10 ppm, 2-stage larvae, examined after 3 days, 25° C., read-out: pesticidal rate
Summary of the method: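 Cabbage leaf disks were dipped for 30 s in test solution at a set concentration and air-dried. Second-instar larvae were placed one per hole and held at 25 °C, with live and dead counts taken after 3 days. Five larvae per group were tested in two replicates.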

## CN(C(=O)c1ccccc1)c1cccc(C(=O)Nc2c(Br)cc(C(F)(C(F)(F)F)C(F)(F)F)cc2Br)c1F [7-1104, N-(2,6-dibromo-4-(heptafluoropropan-2-yl)phenyl)-2-fluoro-3-(N-methylbenzamide)benzamide]
[1]
  pest or weed control at 100 ppm: ≥ 70%
[2]
  pest or weed control at 1 ppm: ≥ 70%
[3]
  pest or weed control at 1 ppm: ≥ 70%
[4]; Ctenocephalides felis, concentration 0.1 μg/ml, after 24 hours of the exposure, in triplicate, read-out: death rate
  pest or weed control at 0.1 µg/mL: 73.3%
[4]; compared with fipronil
  speed of effect as compared with the fipronil: immediate effect
[5]
  pest or weed control at 30 ppm: ≥ 70%
[6]
  pest or weed control at 1 ppm: ≥ 70%
[7]
  effect in the examination after 12 hours of the exposure: effective
[8]
  pest or weed control at 100 ppm: ≥ 70%
[9]
  pest or weed control at 100 ppm: ≥ 70%
[10]
  pest or weed control at 10 ppm: ≥ 70%
[11]
  pest or weed control at 10 ppm: ≥ 70%
